Where a name gives a salt, the structure may show the parent alone.

Data set [1] deals with T1, AHR-activation (Homo sapiens, UniProt P35869).
T1 sequence (P35869 11-848): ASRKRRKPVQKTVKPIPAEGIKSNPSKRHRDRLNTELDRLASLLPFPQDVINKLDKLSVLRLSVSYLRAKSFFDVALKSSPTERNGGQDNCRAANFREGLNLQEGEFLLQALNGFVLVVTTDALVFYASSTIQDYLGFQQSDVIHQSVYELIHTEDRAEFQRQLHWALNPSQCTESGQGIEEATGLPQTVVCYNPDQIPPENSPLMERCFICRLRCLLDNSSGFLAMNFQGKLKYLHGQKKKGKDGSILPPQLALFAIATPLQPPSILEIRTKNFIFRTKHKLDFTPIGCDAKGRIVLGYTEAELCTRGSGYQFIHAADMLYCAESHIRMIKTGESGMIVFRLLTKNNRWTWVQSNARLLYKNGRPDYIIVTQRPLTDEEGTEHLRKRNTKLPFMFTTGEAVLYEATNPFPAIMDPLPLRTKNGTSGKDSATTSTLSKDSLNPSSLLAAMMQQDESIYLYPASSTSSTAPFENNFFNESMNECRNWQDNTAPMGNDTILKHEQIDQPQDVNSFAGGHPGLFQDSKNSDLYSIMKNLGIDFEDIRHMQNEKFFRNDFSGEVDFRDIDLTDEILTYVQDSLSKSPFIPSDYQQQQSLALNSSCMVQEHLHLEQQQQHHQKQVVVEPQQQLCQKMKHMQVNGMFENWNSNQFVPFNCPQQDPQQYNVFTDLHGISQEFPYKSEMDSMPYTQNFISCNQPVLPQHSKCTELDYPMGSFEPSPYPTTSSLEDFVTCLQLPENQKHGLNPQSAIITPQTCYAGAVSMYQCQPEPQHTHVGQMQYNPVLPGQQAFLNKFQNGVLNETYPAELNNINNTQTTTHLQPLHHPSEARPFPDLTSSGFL

For data set [2], the target named is 5-HT1B (Homo sapiens, UniProt P28222). The experiment in a line: InVEST radioligand filter binding, 5-HT1B.
5-HT1B, sequence (P28222 whole entry): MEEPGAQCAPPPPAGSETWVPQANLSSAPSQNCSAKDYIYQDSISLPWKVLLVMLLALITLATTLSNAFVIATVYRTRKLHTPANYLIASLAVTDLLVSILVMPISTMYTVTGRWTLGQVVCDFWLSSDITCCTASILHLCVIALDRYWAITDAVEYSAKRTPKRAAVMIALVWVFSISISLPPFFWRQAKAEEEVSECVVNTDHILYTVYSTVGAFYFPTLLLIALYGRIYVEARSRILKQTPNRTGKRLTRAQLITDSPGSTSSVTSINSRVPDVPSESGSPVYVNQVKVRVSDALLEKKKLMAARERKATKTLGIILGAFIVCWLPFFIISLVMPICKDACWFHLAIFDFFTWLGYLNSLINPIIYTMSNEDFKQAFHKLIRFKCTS
In data set [3] the target is T2, AHR-inhibition (Homo sapiens, UniProt P35869).
T2 sequence (P35869 11-848): T1 sequence (P35869 11-848)
In words: InVEST fluorescence polarization binding/cell-based activity, AHR-inhibition. As to conditions: read-out: IC50 (M) of reference compound, + 10 nM FICZ, tested in parallel. Background: Polarisation of emitted light reports the rotation of a fluorescent probe.

The target in data set [4] is PDE4A (Homo sapiens, UniProt P27815). The experiment in a line: InVEST enzymatic activity, PDE4A. The data set is classed as biochemical. The following applies: read-out: IC50 (M) of reference compound, tested in parallel.
PDE4A, sequence (P27815 whole entry): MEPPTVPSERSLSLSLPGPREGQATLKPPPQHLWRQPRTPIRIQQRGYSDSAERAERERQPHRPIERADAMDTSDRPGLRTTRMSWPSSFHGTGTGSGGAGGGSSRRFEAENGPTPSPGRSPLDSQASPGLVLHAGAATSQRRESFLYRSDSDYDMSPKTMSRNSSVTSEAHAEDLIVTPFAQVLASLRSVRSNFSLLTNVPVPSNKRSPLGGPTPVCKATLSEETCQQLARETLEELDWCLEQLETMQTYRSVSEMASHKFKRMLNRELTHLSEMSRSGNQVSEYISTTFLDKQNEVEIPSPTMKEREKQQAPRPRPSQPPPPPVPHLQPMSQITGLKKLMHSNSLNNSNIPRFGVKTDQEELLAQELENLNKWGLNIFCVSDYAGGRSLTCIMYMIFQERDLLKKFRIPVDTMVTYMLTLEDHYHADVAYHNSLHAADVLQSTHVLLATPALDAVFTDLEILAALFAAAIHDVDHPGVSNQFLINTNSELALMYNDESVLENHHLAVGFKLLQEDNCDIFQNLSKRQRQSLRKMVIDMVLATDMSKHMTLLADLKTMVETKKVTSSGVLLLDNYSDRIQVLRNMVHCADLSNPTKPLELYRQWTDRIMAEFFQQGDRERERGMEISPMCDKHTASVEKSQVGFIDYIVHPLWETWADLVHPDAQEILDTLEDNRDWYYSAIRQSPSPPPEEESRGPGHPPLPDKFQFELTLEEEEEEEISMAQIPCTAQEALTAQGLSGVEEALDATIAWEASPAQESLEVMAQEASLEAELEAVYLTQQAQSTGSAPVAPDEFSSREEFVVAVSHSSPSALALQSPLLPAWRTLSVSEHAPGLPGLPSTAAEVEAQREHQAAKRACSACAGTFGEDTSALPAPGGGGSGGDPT
Data set [5] has as its target PDE3A (Homo sapiens, UniProt Q14432). The experiment in a line: InVEST enzymatic activity, PDE3A. Type of data set: biochemical. As to conditions: read-out: IC50 (M) of reference compound, tested in parallel.
The target of data set [6] is T3, 5-HT3 (Homo sapiens, UniProt P46098).
T3 sequence (P46098 24-478): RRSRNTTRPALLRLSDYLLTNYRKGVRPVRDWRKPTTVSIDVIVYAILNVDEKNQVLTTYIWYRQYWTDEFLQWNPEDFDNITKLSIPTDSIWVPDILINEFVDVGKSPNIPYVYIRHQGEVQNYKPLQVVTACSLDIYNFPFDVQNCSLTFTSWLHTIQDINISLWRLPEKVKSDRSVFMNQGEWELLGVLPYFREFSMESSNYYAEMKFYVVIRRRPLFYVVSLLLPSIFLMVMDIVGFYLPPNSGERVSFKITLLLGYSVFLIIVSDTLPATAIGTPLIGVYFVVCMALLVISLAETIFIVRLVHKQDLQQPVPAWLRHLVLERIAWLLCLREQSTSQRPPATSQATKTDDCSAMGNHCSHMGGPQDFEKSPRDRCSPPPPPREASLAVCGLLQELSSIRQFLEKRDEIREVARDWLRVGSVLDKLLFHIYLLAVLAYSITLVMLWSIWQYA
In words: InVEST radioligand filter binding, ion channel 5-HT3. The following applies: read-out: IC50 (M) of reference compound, tested in parallel.

Data set [7] has as its target T4, Muscarinic M2 (Homo sapiens, UniProt P08172).
T4 sequence (P08172 1-466): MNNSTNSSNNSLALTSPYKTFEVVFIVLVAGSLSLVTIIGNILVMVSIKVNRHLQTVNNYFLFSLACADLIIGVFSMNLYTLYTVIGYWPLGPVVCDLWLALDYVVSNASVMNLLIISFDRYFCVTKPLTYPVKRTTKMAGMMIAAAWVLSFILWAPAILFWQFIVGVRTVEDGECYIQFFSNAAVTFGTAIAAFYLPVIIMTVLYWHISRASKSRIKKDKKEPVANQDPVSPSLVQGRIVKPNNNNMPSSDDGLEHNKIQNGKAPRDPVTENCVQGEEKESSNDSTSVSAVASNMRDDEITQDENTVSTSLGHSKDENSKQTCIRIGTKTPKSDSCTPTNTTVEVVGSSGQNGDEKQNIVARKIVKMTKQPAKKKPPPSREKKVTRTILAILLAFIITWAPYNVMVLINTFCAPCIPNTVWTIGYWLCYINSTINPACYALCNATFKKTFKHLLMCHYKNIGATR
The experiment in a line: InVEST radioligand filter binding, Muscarinic M2. As to conditions: read-out: IC50 (M) of reference compound, tested in parallel.

Data set [8] concerns the target Thrombin alpha (Homo sapiens, UniProt P00734). In words: InVEST enzymatic activity, Thrombin alpha. The data set is classed as biochemical. As to conditions: read-out: IC50 (M) of reference compound, tested in parallel.
The target in data set [9] is T5, CCK (Homo sapiens, UniProt P32238).
T5 sequence (P32238 1-428): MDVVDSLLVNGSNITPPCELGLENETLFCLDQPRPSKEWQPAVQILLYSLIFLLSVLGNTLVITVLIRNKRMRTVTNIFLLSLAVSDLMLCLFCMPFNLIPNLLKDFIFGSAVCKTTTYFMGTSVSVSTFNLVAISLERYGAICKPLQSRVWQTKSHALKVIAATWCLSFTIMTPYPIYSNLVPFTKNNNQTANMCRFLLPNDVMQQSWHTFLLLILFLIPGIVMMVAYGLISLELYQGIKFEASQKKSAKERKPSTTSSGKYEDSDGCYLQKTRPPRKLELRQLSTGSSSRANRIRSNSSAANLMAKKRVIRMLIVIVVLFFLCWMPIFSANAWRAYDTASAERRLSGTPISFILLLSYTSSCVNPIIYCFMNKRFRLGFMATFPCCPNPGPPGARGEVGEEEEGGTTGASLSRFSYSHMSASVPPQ
The experiment in a line: InVEST radioligand filter binding, CCK.

Data set [10] deals with T6, alpha2A adrenergic (Homo sapiens, UniProt P08913).
T6 sequence (P08913 1-465): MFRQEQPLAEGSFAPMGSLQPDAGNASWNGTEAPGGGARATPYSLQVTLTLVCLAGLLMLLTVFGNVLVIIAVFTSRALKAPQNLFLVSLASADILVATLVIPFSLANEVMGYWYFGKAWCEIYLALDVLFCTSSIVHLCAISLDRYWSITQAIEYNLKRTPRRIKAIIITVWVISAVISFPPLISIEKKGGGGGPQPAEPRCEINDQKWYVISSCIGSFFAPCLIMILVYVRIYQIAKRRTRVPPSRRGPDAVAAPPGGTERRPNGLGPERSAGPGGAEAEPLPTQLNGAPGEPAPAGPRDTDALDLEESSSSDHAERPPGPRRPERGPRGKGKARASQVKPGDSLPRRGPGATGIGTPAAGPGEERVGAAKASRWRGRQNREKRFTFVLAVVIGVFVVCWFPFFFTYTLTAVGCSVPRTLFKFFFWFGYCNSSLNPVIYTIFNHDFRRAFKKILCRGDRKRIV
In words: InVEST radioligand filter binding, alpha2A adrenergic. As to conditions: read-out: IC50 (M) of reference compound, tested in parallel.

PDE3A, sequence (Q14432 whole entry): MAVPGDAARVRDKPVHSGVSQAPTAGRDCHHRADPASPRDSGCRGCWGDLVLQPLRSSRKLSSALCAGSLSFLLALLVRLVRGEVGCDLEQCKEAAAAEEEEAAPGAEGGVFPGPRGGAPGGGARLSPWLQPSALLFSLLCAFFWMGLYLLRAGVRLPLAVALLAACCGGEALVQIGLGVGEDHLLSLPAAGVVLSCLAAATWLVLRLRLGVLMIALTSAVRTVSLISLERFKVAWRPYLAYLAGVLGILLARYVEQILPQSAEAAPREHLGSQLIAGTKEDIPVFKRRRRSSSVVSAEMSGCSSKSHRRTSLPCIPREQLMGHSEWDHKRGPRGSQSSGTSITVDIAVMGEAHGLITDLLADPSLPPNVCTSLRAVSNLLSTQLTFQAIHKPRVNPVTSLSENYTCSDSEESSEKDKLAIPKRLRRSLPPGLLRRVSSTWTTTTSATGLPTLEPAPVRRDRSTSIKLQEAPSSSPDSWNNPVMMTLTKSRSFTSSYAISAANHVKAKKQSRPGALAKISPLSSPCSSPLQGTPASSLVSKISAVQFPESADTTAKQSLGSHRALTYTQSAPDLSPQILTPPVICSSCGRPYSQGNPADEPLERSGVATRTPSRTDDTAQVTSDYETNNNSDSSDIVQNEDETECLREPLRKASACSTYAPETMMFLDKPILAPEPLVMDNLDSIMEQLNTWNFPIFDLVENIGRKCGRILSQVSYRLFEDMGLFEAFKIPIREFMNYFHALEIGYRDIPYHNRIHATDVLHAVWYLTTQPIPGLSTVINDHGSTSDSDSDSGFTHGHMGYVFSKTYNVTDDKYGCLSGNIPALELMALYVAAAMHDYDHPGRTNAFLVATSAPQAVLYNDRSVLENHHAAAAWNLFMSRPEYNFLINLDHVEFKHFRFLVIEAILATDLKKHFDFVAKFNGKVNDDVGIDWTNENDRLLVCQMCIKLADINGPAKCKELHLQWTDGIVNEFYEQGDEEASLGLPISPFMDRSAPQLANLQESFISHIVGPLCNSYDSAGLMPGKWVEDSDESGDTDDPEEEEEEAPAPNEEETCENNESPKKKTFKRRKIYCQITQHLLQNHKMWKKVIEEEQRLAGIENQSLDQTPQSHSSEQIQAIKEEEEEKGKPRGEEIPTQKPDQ

A word on the IC50: it is the concentration at which inhibition is half-maximal. In data set [1], `O=Cc1c2[nH]c3ccccc3c2cc2[nH]c3ccccc3c12` [FICZ] registered an IC50 of 10.5 nM.
Compound `COc1ccc(NC(=O)c2ccc(-c3ccncc3)c(C)c2)cc1N1CCN(C)CC1` [GR125743, reference compound] displayed an IC50 in data set [2] of 4.85 nM.
GNF-351 [reference compound]: the IC50 in [3] was found to be 2.9e-07 M.
`CC(C)Cn1c(=O)n(C)c(=O)c2[nH]cnc21` [IBMX, reference compound]: the IC50 is 3e-05 M in data set [4] and 2.21e-05 M in data set [5].
`Cc1[nH]cnc1CCC(=O)c1cn(C)c2ccccc12` [GR 65630, reference compound]: the IC50 in data set [6] turned out to be 1.09e-09 M.
Regarding `CCCN(CCC)CC1CCCCN1CCNC(=O)N1c2ccccc2C(=O)Nc2cccnc21` (stereo not shown) [AF-DX 384, reference compound], the IC50 in data set [7] was 1.79e-08 M.
Turning to `CCOC(=O)c1ccc(OC(=O)CCCCCN=C(N)N)cc1` [gabexate mesylate, reference compound], the IC50 in data set [8] stood at 2.26e-06 M.
`CCCCCN(CCCCC)C(=O)C(CCC(=O)O)NC(=O)c1ccc(Cl)c(Cl)c1` (stereo not shown) [lorglumide, reference compound] registered an IC50 in data set [9] of 3.78 nM.
Turning to `COC1(C2=NCCN2)COc2ccccc2O1` (stereo not shown) [RX 821002, reference compound], the IC50 in [10] is 1.15e-08 M.

The values above are taken from PMC10810011 (Expert opinion on drug delivery, 2023).
